# How the values were obtained:
# [1] = tested on: zebra finch (Taeniopygia guttata); assay: Example 2: disruption of ovulation, oviposition and embryo development after injection, zebra finches; format: in vivo; settings: 20 ug injection
# Description: Zebra finch (Taeniopygia guttata) pairs obtained from a breeding colony maintained at The University of Georgia were housed in individual cages and provided feed and water ad libidumn. Birds were kept under a 14 hour (h) light (L):10 h dark (D) light schedule. Egg-laying was monitored daily and eggs marked to record sequence order. Females were injected intraperitoneally after the first or second egg of the clutch was laid with one of three treatments: 20 μg of CORT dissolved in 50 μl peanut oil and 10% ethanol (CORT), 20 μg of progesterone dissolved in […] and 10% ethanol (P), or 50 μl of control peanut oil (C). A fourth set of females received no injection treatment (UN). […] The follicle ovulating 5 hours after injection, was laid approximately 36 hours after injection (FIG. 3). Ovulating follicles exposed to treatments were laid as the 3rd or 4th egg in the sequence (3rd egg if treatment was administered on the day the 1st egg was laid and the 4th egg in the sequence if treatment was administered on the day the 2nd egg was laid). Eggs were allowed to incubate in the nest for 8-12 days prior to collection to allow sufficient embryonic development for DNA extraction and molecular sexing analyses. Occasionally these treatments disrupted the oviposition immediately following the injection. Females that delayed oviposition after treatment were excluded from analysis because it was not possible to determine whether the egg collected the following day was from the ovulation event that occurred immediately following injection or from a delayed oviposition of the follicle ovulated the day prior to injection. Females that delayed oviposition were allowed to complete the clutch after which the treatment was repeated during the next clutch. […] Only 1/10 females treated with progesterone laid successfully. For this reason, progesterone treatments were eliminated from further analyses.
# female chickens = settings: at the time of meiotic segregation, Correa et al. 2005; cited from earlier work
# [2] = tested on: zebra finches and pigeons; settings: literature; cited from earlier work
SMILES,eggs with delayed oviposition [1] [eggs],eggs with no visible development [1] [eggs],females in which ovulation and oviposition were disrupted [1] [%],females that laid successfully ([1]; number of treated females),sex ratio after acute progesterone treatment (female chickens),sex ratio after testosterone treatment [2]
CC(=O)[C@H]1CC[C@H]2[C@@H]3CCC4=CC(=O)CC[C@]4(C)[C@H]3CC[C@]12C [progesterone],5,4,90,1/10,induced a sex ratio skew towards females,–
C[C@]12CC[C@H]3[C@@H](CCC4=CC(=O)CC[C@@]43C)[C@@H]1CC[C@@H]2O [testosterone],–,–,–,–,–,induced a skew towards males
